Entries after “also recorded” stand apart in the source; their conditions may differ.
System: MDA-MB-453 breast cancer cell line (HR2+/HER2+, ER-negative)
Experiment: Cell proliferation assay, MDA-MB-453 cells
Assay type: cell-based, human
Settings: MDA-MB-453 (ER-negative control); ICI 182,780 100 nM alone
Description: All cell lines were cultured according to ATCC's guidelines. BT20, HCC1187, MDAMB468 and SUM159 cells were trypsinized with 0.05% trypsin/EDTA and plated at appropriate densities (BT20: 6,000, HCC1187: 10,000, MDAMB468: 4,000 and SUM159: 1,000 cells/well) in 96 well plates in DMEM+10% FBS. The next day Calcitriol and Taxol were added at concentrations of 25 nM and 1.5 nM respectively (Day0). For ZR75B, 4000 cells/well were plated in 96 well plates in DMEM+10% FBS. […] Calcitriol and 5 nM IC1180,782 were added the next day with fresh medium (Day0). Media was refreshed every two days and cell proliferation assay was performed on day 6 for above cell lines. The T47D cells were trypsinized with phenol red free Triple Express (Invitrogen) and washed once with PBS and 10,000 cells/well were plated in phenol red free DMEM+5% charcoal stripped FBS (CSFBS) in 96 well plates and cultured for 3 days. On the fourth day, 10 nM 17 beta estradiol (E2) was added into all the wells except non-drug treatment group, in addition to 10 nM IC1180,782, 10 nM R1881 and 50 nM Calcitriol in different groups with fresh phenol red free DMEM+5% CSFBS (Day0). […] All the proliferation assays were carried out using cell titer blue reagent (Promega) and fluorescence was measured using Bio-Tek spectrophotometer at 530/25 nm (excitation) and 590/35 nm (emission). […]

With `C[C@]12CC[C@@H]3c4ccc(O)cc4C[C@@H](CCCCCCCCC[S+]([O-])CCCC(F)(F)C(F)(F)F)[C@H]3[C@@H]1CC[C@@H]2O` (stereo partly shown) [ICI 182,780] as the compound, how does the cell proliferation read?
The cell proliferation was “no inhibition was observed; also recorded: no inhibition of cell proliferation”.

— patent US20160146819A1, “CLASSIFICATION SYSTEM, METHODS AND KIT FOR CLASSIFYING, PREDICTING AND TREATING BREAST CANCER” (UNIVERSITY OF MIAMI, priority 2013, published 2016)
